Test results from patent US5620864A, “Acceptor for fucosyl transferase” (Health Research, Inc., priority 1992, dated 1997).
Values joined by “and” are separate entries in the source; they are usually repeats but may differ in a detail not shown here. Equal entries are not always repeated.

Columns and labels:
[1] = tested on: serum α1,3-L-fucosyltransferase; experiment: Acceptor ability in presence of the competitive substrate (3'-sulfo LacNAc vs 2'-methyl LacNAc), ovarian cancer sera; type: biochemical, human; settings: for Km: serum enzyme
Procedure: (§1) An incubation mixture contained 50 mM HEPES-NaOH, pH 7.5, 5 mM MnC12, 7 mM ATP, 3 mM NaN3, the acceptor 0.3 mM (for serum enzyme) or 3.0 mM (for tumor enzyme), 0.125 μCi of GDP-[U-^14 C] Fuc (Sp. Act. 216 mCi/mmol) and enzyme in a total volume of 0.10 ml; the control incubation mixture had everything except the acceptor. At the end of incubation at 37° C. for 18 h, the mixture was diluted with 1 ml water and passed through Dowex-1-C1 column (1 ml in a Pasteur pipet). The column was washed twice with 1 ml water; the breakthrough and wash, which contained the [^14 C] fucosylated neutral acceptor, were collected together in a scintillation vial and counted for radioactivity using the scintillation coctail 3a70 (Research Products International, Mount Prospects, Ill.) and Beckman LS9000. The Dowex column was then eluted successively with 3 ml each of 0.1M and 0.2M NaCl; these eluates which contained the [^14 C] fucosylated sulfated acceptors, were counted for radioactivity as before. Corrections were made by subtracting the radioactivity in the water and NaCl eluates of the control incubation mixture from the corresponding test fractions. The duplicate runs of samples gave almost identical values, the difference being <5%.
The superiority of 3'-sulfo LacNAc over 2'-methyl LacNAc as the substrate for measuring serum α1,3 fucosyltransferase was tested in three different ways. First, the incubation mixtures in duplicate contained 0.3 mM 3'-sulfo LacNAc and varying amounts of 2'-methyl LacNAc (0 to 7.5 mM); the incorporation of [^14 C] fucose by the serum enzyme into both substrates was measured (Table III). The incorporation of [^14 C] fucose into 3'-sulfo LacNAc decreased and into 2'-methyl LacNAc increased with the increase in the concentration of the latter. […] 25 fold less than 2' methyl LacNAc. Secondly, the incubation mixtures in duplicate contained 3.0 mM 2'-methyl LacNAc and varying amounts of 3'-sulfo LacNAc (0 to 0.75 mM); the incorporation of [^14 C] fucose by the same serum enzyme into both substrates was measured (Table III). The [^14 C] fucose incorporation into 2'-methyl LacNAc decreased and into 3'-sulfo LacNAc increased by increasing the concentration of the latter. […] Thirdly, both 2'-methyl LacNAc and 3'-sulfo LacNAc at 0.3 mM concentration were incubated separately in duplicates with six ovarian cancer sera and one normal serum; the incorporation of [^14 C] fucose into these acceptors were quantitated (Table IV). The [^14 C] fucose incorporation into 3'-sulfo LacNAc was consistently higher (4-5 fold) than that into 2'-methyl LacNAc, including the assay of the normal serum. […] These values indicate that 3'-sulfo LacNAc is a very high affinity acceptor for α1,3 fucosyltransferase. The [^14 C] fucosylated product arising from 3'-sulfo LacNAc has been tentatively identified as 3'-sulfo, 3-fucosyl LacNAc by comparing strictly its mobility on paper with the synthetic authentic compound 3'-sulfo, 3-fucosyl LacNAc (see FIG. 5).

[2] = tested on: α1,3-L-fucosyltransferase of the soluble fraction of human ovarian tumor; experiment: Assay of α1,3-fucosyltransferase with synthetic acceptors, partially purified enzyme of ovarian tumor soluble fraction; type: biochemical; settings: for [14C] Fucose Incorporated (CPM): acceptor 3.0 mM, 37° C. 18 h
Procedure: as §1
As shown in the scheme set forth in FIG. 2, the α-L-fucosidase-free extract of the tissue (40 g), after concentration by 80% (NH4)2 SO4 precipitation was fractionated on bovine IgG glycopep-Sepharose in batches of 25 ml. After washing the column with the equilibration buffer, the bound enzyme was eluted with 1 M NaCl in the same buffer. The protein positive fractions were pooled and processed as shown in the scheme 2.0 ml of the above preparation was loaded on a Sephacryl S-200 column (Superfine:2.6 cm×88.0 cm) equilibrated at 4° C. with 50 mM Tris-HC1, pH 7.0 containing 0.15M NaCl and 0.1% Triton X-100 and eluted with the same buffer. Fractions of 3.0 ml were collected. The fucosyltransferase activity was located in the effluent fractions, by assaying first every 5th fraction and then obtaining the activity profile by assaying the alternate fractions in that range, using 2'-fucosyl LacNAc as the acceptor. […] Its elution position, which is slightly later than BSA, run separately on the same column, indicates its molecular weight as <67,000 daltons. […] The enzyme has been purified 66 fold over the soluble extract with a recovery of 6.2%. The enzyme at this stage lost its activity either kept frozen at -20° C. or left at 4° C. for more than a week. However, the enzyme at the end of the previous step was fairly stable for at least two months at 4° C. So this preparation of enzyme was used in acceptor ability comparison studies.
When α1,3-fucosyltransferase activity of the partially purified enzyme preparation from the soluble portion of ovarian tumor was measured and compared with the activity of other acceptors, the following results were obtained. 2'-methyl LacNAc, LacNAc and Galβ1, 3GlcNAc were respectively 100.0%, 60.6% and 565.5% active, indicating the presence of both α1,3 and α1,4 fucosyltransferase activities in this preparation.

[3] = 2'-Methyl LacNAc 3.0 mM + 3'-Sulfo LacNAc 0 mM
[4] = 2'-Methyl LacNAc 3.0 mM + 3'-Sulfo LacNAc 0.15 mM
[5] = 2'-Methyl LacNAc 3.0 mM + 3'-Sulfo LacNAc 0.30 mM
[6] = 2'-Methyl LacNAc 3.0 mM + 3'-Sulfo LacNAc 0.45 mM
[7] = 2'-Methyl LacNAc 3.0 mM + 3'-Sulfo LacNAc 0.65 mM
[8] = 2'-Methyl LacNAc 3.0 mM + 3'-Sulfo LacNAc 0.75 mM
[9] = 3'-Sulfo LacNAc 0.3 mM + 2'-Methyl LacNAc 0 mM
[10] = 3'-Sulfo LacNAc 0.3 mM + 2'-Methyl LacNAc 1.5 mM
[11] = 3'-Sulfo LacNAc 0.3 mM + 2'-Methyl LacNAc 3.0 mM
[12] = 3'-Sulfo LacNAc 0.3 mM + 2'-Methyl LacNAc 4.5 mM
[13] = 3'-Sulfo LacNAc 0.3 mM + 2'-Methyl LacNAc 6.0 mM
[14] = 3'-Sulfo LacNAc 0.3 mM + 2'-Methyl LacNAc 7.5 mM

| Compound | Incorporation of [14C] Fucose (CPM) [1, 3] [CPM] | Incorporation of [14C] Fucose (CPM) [1, 4] [CPM] | Incorporation of [14C] Fucose (CPM) [1, 5] [CPM] | Incorporation of [14C] Fucose (CPM) [1, 6] [CPM] | Incorporation of [14C] Fucose (CPM) [1, 7] [CPM] | Incorporation of [14C] Fucose (CPM) [1, 8] [CPM] | Incorporation of [14C] Fucose (CPM) [1, 9] [CPM] | Incorporation of [14C] Fucose (CPM) [1, 10] [CPM] | Incorporation of [14C] Fucose (CPM) [1, 11] [CPM] | Incorporation of [14C] Fucose (CPM) [1, 12] [CPM] | Incorporation of [14C] Fucose (CPM) [1, 13] [CPM] | Incorporation of [14C] Fucose (CPM) [1, 14] [CPM] | Relative Percent ([2]; 2'-methyl LacNAc = 100) [%] | [14C] Fucose Incorporated (CPM) [2] [CPM] | further results |
| --- | --- | --- | --- | --- | --- | --- | --- | --- | --- | --- | --- | --- | --- | --- | --- |
| CO[C@H]1[C@H](O[C@H]2[C@H](O)[C@@H](NC(C)=O)C(O)O[C@@H]2CO)O[C@H](CO)[C@H](O)[C@@H]1O (some centres unmarked) [2'-methyl LacNAc] | 3664 | 2581 | 2191 | 1737 | 1184 | 1187 | 157 | 1143 | 1614 | 1973 | 2698 | 2788 | 100 | 7392 | inhibition of the [14C] fucose incorporation into 3'-sulfo LacNAc ([1]; 2'-methyl LacNAc 7.5 mM, 3'-sulfo LacNAc 0.3 mM): 43%; Km ([1]; 2'-methyl LacNAc in presence of 0.3 mM 3'-sulfo LacNAc): 6.67 mM; inhibition by 2'-methyl LacNAc of incorporation into 3'-sulfo LacNAc ([1]; 3'-sulfo LacNAc present at 3.0 mM): no inhibition |
| CC(=O)N[C@H]1C(O)O[C@H](CO)[C@@H](O[C@@H]2O[C@H](CO)[C@H](O)[C@H](OS(=O)(=O)O)[C@H]2O)[C@@H]1O (stereo partly drawn) [3'-Sulfo-LacNAc, SODIUM β-D-GALACTOPYRANOSYL 3-SULFATE-(1→4)-2-ACETAMIDO-2-DEOXY-D-GLUCOPYRANOSE] | 140 | 1294 | 2181 | 2417 | 2373 | 2560 | 2520 | 2132 | 1872 | 1748 | 1712 | 1428 | 447.1 | 33049 | inhibition of the [14C] fucose incorporation into 2'-methyl LacNAc ([1]; 3'-Sulfo LacNAc 0.75 mM, 2'-methyl LacNAc 3.0 mM): 68%; Km ([1]; 3'-sulfo LacNAc in presence of 3.0 mM 2'-methyl LacNAc): 0.12 mM; Relative Percent ([2]; 2'-methyl LacNAc = 100, listed as 3'-Sulfo LacNAc): 447%; Relative Percent ([2]; 2'-methyl LacNAc = 100, listed as 3'-sulfo LacNAc): 447% and 447.1% |
